Values of other authors in patent US20120016347A1, “Seroma Control for Surgical Patients” (priority 2010, published 2012).

Tested on: pleural effusions
Conditions: Patz (Chest, 1998)

Compound: bleomycin
- Success rate in completely or partially controlling pleural effusions: 72%

Compound: C[C@H]1c2cccc(O)c2C(O)=C2C(=O)[C@]3(O)C(O)=C(C(N)=O)C(=O)[C@@H](N(C)C)[C@@H]3[C@@H](O)[C@@H]21 [doxyclycline, doxycycline]
- Success rate in completely or partially controlling pleural effusions: 79%
